These compounds were tested on Hedgehog signaling pathway (assay: Gli-Luc luciferase reporter gene assay in C3H10T1/2/Gli-Luc cells under Shh-N stimulation). Conditions: 24 h, luciferase RLU, read-out: biological activity: IC50 of the inhibitory activities of compounds on the hedgehog pathway.
Type: cell-based
Summary of the method: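 IC50 derived by curve fitting of luciferase RLU against log compound concentration. Stable C3H10T1/2/Gli-Luc cells, seeded overnight, were co-treated 24 h with serially diluted compound (7 points, duplicate wells) and 30 nM Shh-N-containing HEK293 conditioned medium before lysis and luminescence readout.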

IC50 | SMILES
≤ 50 nM | COc1c(-c2cnc(N3C[C@@H](C)O[C@@H](C)C3)cc2C)cnc2c(-c3ccc(C#N)cc3)cccc12 [Embodiment 167]

Same assay, conditions: Mus musculus, C3H 10T1/2, 24 h, luciferase RLU, read-out: biological activity: IC50 of the inhibitory activities of compounds on the hedgehog pathway

SMILES | IC50
COc1c(-c2ccc(N3C[C@@H](C)O[C@@H](C)C3)cc2)cnc2c1CCCC2(O)c1ccc(C#N)cc1 (stereo partly drawn) [Embodiment 156, 4-(3-(4-((2S,6R)-2,6-dimethylmorpholino)phenyl)-8-hydroxy-4-methoxy-5,6,7,8-tetra hydroquinolin-8-yl)benzonitrile] | 500 to 1000 nM
COc1c(-c2ccc(N3C[C@@H](C)O[C@@H](C)C3)cc2)cnc2c1CCCC2(OC)c1ccc(C#N)cc1 (stereo partly drawn) [Embodiment 157, 4-(3-(4-((2S,6R)-2,6-dimethylmorpholino)phenyl)-4,8-dimethoxy-5,6,7,8-tetrahydroquinolin-8-yl)benzonitrile] | 1000 to 5000 nM
COc1c(-c2ccc(N3C[C@@H](C)O[C@@H](C)C3)nc2)cnc2c(-c3ccc(C)nc3)cccc12 [Embodiment 163] | 100 to 500 nM
COc1c(-c2ccc(N3C[C@@H](C)O[C@@H](C)C3)nc2)cnc2c(-c3ccc(C(C)C)nc3Cl)cccc12 [Embodiment 164] | 100 to 500 nM
COc1c(-c2ccc(N3C[C@@H](C)O[C@@H](C)C3)nc2)cnc2c(-c3ccnn3C)cccc12 [Embodiment 165] | 100 to 500 nM
COc1c(-c2ccc(N3C[C@@H](C)O[C@@H](C)C3)c(Cl)c2)cnc2c(-c3ccc(C#N)cc3)cccc12 [Embodiment 173] | 100 to 500 nM
COc1c(-c2ccc(N3C[C@@H](C)O[C@@H](C)C3)c(C)c2)cnc2c(-c3ccc(C#N)cc3)cccc12 [Embodiment 174] | 100 to 500 nM
COc1c(-c2ccc(N3C[C@@H](C)O[C@@H](C)C3)nn2)cnc2c(-c3ccc(C#N)cc3)cccc12 [Embodiment 175, 4-(3-(6-((2S,6R)-2,6-dimethylmorpholino)pyridazin-3-yl)-4-methoxyquinolin-8-yl) benzonitrile] | 100 to 500 nM

Results, then the compound that gave them:

IC50 | SMILES
≤ 50 nM | COc1c(-c2ccc(N3C[C@@H](C)O[C@@H](C)C3)nc2)cnc2c(-c3ccc(C#N)cc3)cccc12 [Embodiment 158, 4-(3-(6-((2S,6R)-2,6-dimethylmorpholino)pyridin-3-yl)-4-methoxyquinolin-8-yl) benzonitrile]
≤ 50 nM | COc1c(-c2ccc(N3C[C@@H](C)O[C@@H](C)C3)nc2)cnc2c(-c3ccc(C(F)(F)F)cc3)cccc12 [Embodiment 159]
≤ 50 nM | COc1c(-c2ccc(N3C[C@@H](C)O[C@@H](C)C3)nc2)cnc2c(-c3ccc(OC(F)(F)F)cc3)cccc12 [Embodiment 160]
≤ 50 nM | COc1c(-c2ccc(N3C[C@@H](C)O[C@@H](C)C3)nc2)cnc2c(-c3ccc(S(C)(=O)=O)cc3)cccc12 [Embodiment 161]
≤ 50 nM | COc1c(-c2ccc(N3C[C@@H](C)O[C@@H](C)C3)nc2)cnc2c(-c3ccccc3)cccc12 [Embodiment 162]
≤ 50 nM | COc1c(-c2ccc(N3C[C@@H](C)O[C@@H](C)C3)nc2C)cnc2c(-c3ccc(C#N)cc3)cccc12 [Embodiment 166, 4-(3-(6-((2S,6R)-2,6-dimethylmorpholino)-2-methylpyridin-3-yl)-4-methoxyquinolin-8-yl)benzonitrile]
≤ 50 nM | COc1c(-c2ccc(N3C[C@@H](C)O[C@@H](C)C3)cc2F)cnc2c(-c3ccc(C#N)cc3)cccc12 [Embodiment 168, 4-(3-(4-((2S,6R)-2,6-dimethylmorpholino)-2-fluorophenyl)-4-methoxyquinolin-8-yl) benzonitrile]
≤ 50 nM | COc1c(-c2ccc(N3C[C@@H](C)O[C@@H](C)C3)cc2C)cnc2c(-c3ccc(C#N)cc3)cccc12 [Embodiment 169]
≤ 50 nM | COc1c(-c2ccc(N3C[C@@H](C)O[C@@H](C)C3)cc2Cl)cnc2c(-c3ccc(C#N)cc3)cccc12 [Embodiment 170]
≤ 50 nM | COc1c(-c2ccc(N3C[C@@H](C)O[C@@H](C)C3)cn2)cnc2c(-c3ccc(C#N)cc3)cccc12 [Embodiment 171]
≤ 50 nM | COc1c(-c2ccc(N3C[C@@H](C)O[C@@H](C)C3)c(F)c2)cnc2c(-c3ccc(C#N)cc3)cccc12 [Embodiment 172]
